Experimental data as given in patent US20070010484A1, “Method for treating or inhibiting the effects of injuries or diseases that result in neuronal degeneration and method for promoting neurogenesis” (YEDA RESEARCH AND DEVELOPMENT CO. LTD., priority 2003, published 2007).

Tests used:
[1] = system: PC12 cells; experiment: Neurite outgrowth assay in NGF-stimulated PC12 cells; format: cell-based, rat; conditions: PC12 cells, NGF 10 ng/ml
Protocol: PC12 cell line: Rat pheochromocytoma (PC12) cells were cultured in DMEM containing 8% horse serum and either 8% FCS (culture medium) or 1% FCS (differentiation medium), and antibiotics. For assays of neurite outgrowth, the cells were plated (10^5 cell/well) on 13-mm glass coverslips, precoated with collagen (500 μg/ml) in 24-well plates. Neurite outgrowth assays: PC12 cells were cultured for 24-72 h while being stimulated with 10 ng/ml NGF, with or without CSPG-DSs. Cell morphology was visualized under a phase-contrast microscope and neurite lengths were measured using ImagePro. At least 200 cells were measured for each condition.

[2] = system: PC12 cells; experiment: LPA-induced neurite retraction in differentiated PC12 cells; format: cell-based, rat; conditions: NGF-differentiated PC12 cells, LPA 1 μg/ml, 20 min
Protocol: PC12 cell line: Rat pheochromocytoma (PC12) cells were cultured in DMEM containing 8% horse serum and either 8% FCS (culture medium) or 1% FCS (differentiation medium), and antibiotics. For assays of neurite outgrowth, the cells were plated (10^5 cell/well) on 13-mm glass coverslips, precoated with collagen (500 μg/ml) in 24-well plates. Treatment of PC12 cells with lysophosphatidic acid (LPA). PC12 cells were placed and were differentiated for 3 days in the presence of 100 ng/ml NGF, in collagen-precoated culture dishes (Corning). […] The cells were then fixed with 4% paraformaldehyde (PFA) and analyzed by Nomarski microscopy. The longest neurite of each cell was measured and the results are expressed as their mean±SEM.

[3] = system: retinal ganglion cells (RGCs); experiment: Experimental autoimmune uveitis (EAU), RGC survival; format: in vivo; conditions: R16-immunized Lewis rats, i.p. on days 3, 6, 9, 12 and 17; counted 3 weeks after immunization; mean±SD
Protocol: Induction of experimental autoimmune uveitis. To induce experimental autoimmune uveitis (EAU), Lewis rats were immunized with R16 (30 μg), a peptide derived from an ocular antigen IRBP emulsified in CFA containing 2.5 mg/ml M. tuberculosis. A total volume of 100 μl was injected s.c. into each rat at the root of the tail. Rats were then divided into three groups. On days 3, 6, 9, 12 and 17 after immunization the rats in the first group were injected i.p. with CSPG-DS (15 μg/rat), and rats in the second group were injected i.p. with methylprednisolone (MP. 30 mg/kg; Solu-Medrol, 125 mg/ml, Pharmacia & Upjohn, Puurs, Belgium). Rats in third group were left untreated.

CC(=O)N[C@H]1C(O)O[C@H](CO)[C@H](O)[C@@H]1O[C@@H]1OC(C(=O)O)=C[C@H](O)[C@H]1O (stereo partly drawn) [Di-0S, 2-acetamido-2-deoxy-3-O-(β-D-gluco-4-enepyranosyluronic acid)-D-galactose]
effect on neurite outgrowth [1]: no effect

lysophosphatidic acid [LPA, reference compound]
neurite collapse by LPA alone [2]: induced neurite collapse

C[C@H]1C[C@@H]2[C@H]([C@@H](O)C[C@@]3(C)[C@H]2CC[C@]3(O)C(=O)COC(=O)CCC(=O)[O-])[C@@]2(C)C=CC(=O)C=C12.[Na+] [MP, reference compound]
RGC loss relative to normal rats [3]: 59±1.6%
